Measured values published in ChEMBL document CHEMBL3124876, “A perylene derivative regulates HIF-1α and Stat3 signaling pathways” (Bioorg Med Chem, 2014).
Active and inactive are the calls of the source. The rule behind the calls is not given here.

How the values were obtained:
PANC-1 [1] = test: Inhibition of ERK in human PANC1 cells at 1 to 20 uM by Western blotting analysis; format: cell-based
PANC-1 [2] = test: Inhibition of ERK phosphorylation in human PANC1 cells at 1 to 20 uM by Western blotting analysis; format: cell-based
[3] = biological target: Hypoxia-inducible factor 1-alpha (Homo sapiens) (UniProt Q16665); test: Inhibition of HIF-1 alpha in human MDA-MB-468 cells assessed as proteasomal degradation at 4 to 7 uM after 18 hrs by immunoblotting analysis in hypoxia condition in presence of MG132; format: cell-based
Chain of Hypoxia-inducible factor 1-alpha (Homo sapiens) (Q16665 whole entry, looked up): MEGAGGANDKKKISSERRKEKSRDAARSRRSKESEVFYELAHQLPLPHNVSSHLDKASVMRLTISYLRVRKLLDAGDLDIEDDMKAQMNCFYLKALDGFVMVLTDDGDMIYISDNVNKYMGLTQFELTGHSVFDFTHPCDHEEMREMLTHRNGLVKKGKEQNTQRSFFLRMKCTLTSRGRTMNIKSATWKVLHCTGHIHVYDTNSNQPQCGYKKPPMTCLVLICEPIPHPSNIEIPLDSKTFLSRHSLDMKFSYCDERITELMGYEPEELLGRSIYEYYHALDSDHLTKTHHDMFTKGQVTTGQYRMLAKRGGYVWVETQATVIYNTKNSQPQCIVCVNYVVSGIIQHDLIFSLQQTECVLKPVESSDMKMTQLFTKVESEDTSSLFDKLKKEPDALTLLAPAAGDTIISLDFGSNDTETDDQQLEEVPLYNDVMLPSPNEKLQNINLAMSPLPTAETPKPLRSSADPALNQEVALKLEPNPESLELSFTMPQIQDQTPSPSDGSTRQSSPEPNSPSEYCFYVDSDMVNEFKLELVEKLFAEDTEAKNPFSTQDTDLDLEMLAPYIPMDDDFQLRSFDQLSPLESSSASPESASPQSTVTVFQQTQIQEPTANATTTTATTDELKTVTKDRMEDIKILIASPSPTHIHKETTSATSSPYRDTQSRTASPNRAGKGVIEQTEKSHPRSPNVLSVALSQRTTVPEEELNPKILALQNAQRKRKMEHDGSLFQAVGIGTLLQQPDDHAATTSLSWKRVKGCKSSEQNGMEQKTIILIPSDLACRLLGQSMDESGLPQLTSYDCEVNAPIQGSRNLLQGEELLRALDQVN

[4] = Induction of apoptosis in human MCF10A cells assessed as reduction in cell viability at 1 to 10 uM by MTT assay; format: cell-based; conditions: mcf-10a
[5] = biological target: Endothelial PAS domain-containing protein 1 (Homo sapiens) (UniProt Q99814); test: Inhibition of HIF-2 alpha in human PC3 cells after 18 hrs by Western blotting analysis in hypoxia condition; format: cell-based; conditions: PC-3
[6] = biological target: Signal transducer and activator of transcription 3 (Homo sapiens) (UniProt P40763); test: Inhibition of Stat3 in human MDA-MB-231 cells assessed as inhibition of Stat3 phosphorylation at 10 uM after 18 hrs by Western blotting analysis; format: cell-based
Chain of Signal transducer and activator of transcription 3 (Homo sapiens) (P40763 whole entry): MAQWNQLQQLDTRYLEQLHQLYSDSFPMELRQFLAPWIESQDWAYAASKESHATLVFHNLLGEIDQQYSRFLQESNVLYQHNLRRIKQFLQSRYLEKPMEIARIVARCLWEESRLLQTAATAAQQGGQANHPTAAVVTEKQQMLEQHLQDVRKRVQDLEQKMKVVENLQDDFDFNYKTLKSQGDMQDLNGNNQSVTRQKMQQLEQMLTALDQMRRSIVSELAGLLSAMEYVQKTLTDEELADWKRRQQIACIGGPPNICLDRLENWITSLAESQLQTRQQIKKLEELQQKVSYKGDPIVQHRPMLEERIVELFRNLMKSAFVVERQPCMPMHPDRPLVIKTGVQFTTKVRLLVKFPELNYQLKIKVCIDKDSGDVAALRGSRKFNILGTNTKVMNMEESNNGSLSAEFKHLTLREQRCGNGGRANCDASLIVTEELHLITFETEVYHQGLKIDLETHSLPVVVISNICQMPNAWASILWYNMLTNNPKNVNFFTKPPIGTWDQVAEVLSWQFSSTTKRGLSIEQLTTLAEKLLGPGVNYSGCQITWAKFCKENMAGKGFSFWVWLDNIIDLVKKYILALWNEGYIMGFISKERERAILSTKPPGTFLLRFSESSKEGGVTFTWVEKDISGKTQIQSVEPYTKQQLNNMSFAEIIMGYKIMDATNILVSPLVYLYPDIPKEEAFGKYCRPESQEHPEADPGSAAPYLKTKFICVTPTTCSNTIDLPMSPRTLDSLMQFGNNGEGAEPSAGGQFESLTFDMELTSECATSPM

MDA-MB-468 [7] = test: Induction of apoptosis in human MDA-MB-468 cells assessed as reduction in cell viability at 1 to 10 uM by MTT assay; format: functional, cell-based
[8] = biological target: Hypoxia-inducible factor 1-alpha (Homo sapiens) (UniProt Q16665); test: Inhibition of HIF-1 alpha in human OVCAR3 cells assessed as inhibition of Bcl2 expression at 1 to 20 uM by Western blotting analysis in normoxia condition; format: cell-based; conditions: OVCAR-3
MDA-MB-468 [9] = test: Inhibition of HIF-1 in human MDA-MB-468 cells assessed as reduction of GLUT1 mRNA expression at 5 to 10 uM by RT-PCR analysis in hypoxia condition; format: cell-based
[10] = biological target: Proto-oncogene tyrosine-protein kinase Src (Homo sapiens) (UniProt P12931); test: Inhibition of Src kinase (unknown origin) phosphorylation at 10 uM after 6 hrs by cell-based Western blotting analysis
Chain of Proto-oncogene tyrosine-protein kinase Src (Homo sapiens) (P12931 2-536 limits assumed): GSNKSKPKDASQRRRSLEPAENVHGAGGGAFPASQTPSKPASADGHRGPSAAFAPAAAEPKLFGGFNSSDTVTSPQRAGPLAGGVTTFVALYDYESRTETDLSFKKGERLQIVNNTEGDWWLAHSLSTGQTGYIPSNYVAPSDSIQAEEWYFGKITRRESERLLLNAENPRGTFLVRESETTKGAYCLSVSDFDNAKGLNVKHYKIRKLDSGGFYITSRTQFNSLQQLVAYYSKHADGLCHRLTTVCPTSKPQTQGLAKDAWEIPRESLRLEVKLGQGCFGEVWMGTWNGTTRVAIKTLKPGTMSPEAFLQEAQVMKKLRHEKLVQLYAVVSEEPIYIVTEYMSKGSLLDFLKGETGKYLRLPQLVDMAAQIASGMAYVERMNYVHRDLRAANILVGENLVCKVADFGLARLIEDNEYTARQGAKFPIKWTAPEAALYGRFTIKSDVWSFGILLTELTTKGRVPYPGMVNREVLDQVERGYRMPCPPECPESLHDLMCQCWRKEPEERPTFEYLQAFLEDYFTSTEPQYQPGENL

[11] = biological target: Signal transducer and activator of transcription 3 (Homo sapiens) (UniProt P40763); conditions: PANC-1, 0.5 to 20 uM
Description: Inhibition of Stat3 phosphorylation in human PANC1 cells assessed as inhibition of Bcl2 expression at 0.5 to 20 uM by Western blotting analysis in hypoxia condition

[12] = biological target: Signal transducer and activator of transcription 3 (Homo sapiens) (UniProt P40763); conditions: 10 uM
Description: Inhibition of STAT3 (unknown origin) phosphorylation at 10 uM after 30 mins by cell-based Western blotting analysis

[13] = Antitumor activity against human PANC1 cells xenografted in Balb nu/nu mouse assessed as mean tumor volume at 2 mg/kg, ip administered every other day for 10 days measured after 19 days (reference value: 754 mm'3); format: functional, PANC-1; conditions: route intraperitoneal
[14] = biological target: Proto-oncogene tyrosine-protein kinase Src (Homo sapiens) (UniProt P12931); test: Inhibition of Src kinase (unknown origin) assessed as total SRC level at 10 uM after 6 hrs by cell-based Western blotting analysis
Mus musculus = test: Toxicity in Balb nu/nu mouse assessed as change in body weight at 2 mg/kg, ip administered every other day for 10 days measured after 19 days; format: organism-based; set-up: dose 2 mg/kg, route intraperitoneal; conditions: in vivo, 456 h
[15] = biological target: Hypoxia-inducible factor 1-alpha (Homo sapiens) (UniProt Q16665); test: Inhibition of HIF-1 alpha in human PANC1 cells assessed as inhibition of Bcl2 expression at 1 to 20 uM by Western blotting analysis in hypoxia condition; format: cell-based; conditions: PANC-1
[16] = biological target: Tyrosine-protein kinase JAK2 (Homo sapiens) (UniProt O60674); test: Inhibition of JAK2 phosphorylation in human MDA-MB-231 cells at 0.05 to 10 uM by Western blotting analysis; format: cell-based
[17] = biological target: Histone acetyltransferase p300 (Homo sapiens) (UniProt Q09472); test: Inhibition of P300 in human PC3 cells after 18 hrs by Western blotting analysis in hypoxia condition; format: cell-based; conditions: PC-3
Chain of Histone acetyltransferase p300 (Homo sapiens) (Q09472 whole entry): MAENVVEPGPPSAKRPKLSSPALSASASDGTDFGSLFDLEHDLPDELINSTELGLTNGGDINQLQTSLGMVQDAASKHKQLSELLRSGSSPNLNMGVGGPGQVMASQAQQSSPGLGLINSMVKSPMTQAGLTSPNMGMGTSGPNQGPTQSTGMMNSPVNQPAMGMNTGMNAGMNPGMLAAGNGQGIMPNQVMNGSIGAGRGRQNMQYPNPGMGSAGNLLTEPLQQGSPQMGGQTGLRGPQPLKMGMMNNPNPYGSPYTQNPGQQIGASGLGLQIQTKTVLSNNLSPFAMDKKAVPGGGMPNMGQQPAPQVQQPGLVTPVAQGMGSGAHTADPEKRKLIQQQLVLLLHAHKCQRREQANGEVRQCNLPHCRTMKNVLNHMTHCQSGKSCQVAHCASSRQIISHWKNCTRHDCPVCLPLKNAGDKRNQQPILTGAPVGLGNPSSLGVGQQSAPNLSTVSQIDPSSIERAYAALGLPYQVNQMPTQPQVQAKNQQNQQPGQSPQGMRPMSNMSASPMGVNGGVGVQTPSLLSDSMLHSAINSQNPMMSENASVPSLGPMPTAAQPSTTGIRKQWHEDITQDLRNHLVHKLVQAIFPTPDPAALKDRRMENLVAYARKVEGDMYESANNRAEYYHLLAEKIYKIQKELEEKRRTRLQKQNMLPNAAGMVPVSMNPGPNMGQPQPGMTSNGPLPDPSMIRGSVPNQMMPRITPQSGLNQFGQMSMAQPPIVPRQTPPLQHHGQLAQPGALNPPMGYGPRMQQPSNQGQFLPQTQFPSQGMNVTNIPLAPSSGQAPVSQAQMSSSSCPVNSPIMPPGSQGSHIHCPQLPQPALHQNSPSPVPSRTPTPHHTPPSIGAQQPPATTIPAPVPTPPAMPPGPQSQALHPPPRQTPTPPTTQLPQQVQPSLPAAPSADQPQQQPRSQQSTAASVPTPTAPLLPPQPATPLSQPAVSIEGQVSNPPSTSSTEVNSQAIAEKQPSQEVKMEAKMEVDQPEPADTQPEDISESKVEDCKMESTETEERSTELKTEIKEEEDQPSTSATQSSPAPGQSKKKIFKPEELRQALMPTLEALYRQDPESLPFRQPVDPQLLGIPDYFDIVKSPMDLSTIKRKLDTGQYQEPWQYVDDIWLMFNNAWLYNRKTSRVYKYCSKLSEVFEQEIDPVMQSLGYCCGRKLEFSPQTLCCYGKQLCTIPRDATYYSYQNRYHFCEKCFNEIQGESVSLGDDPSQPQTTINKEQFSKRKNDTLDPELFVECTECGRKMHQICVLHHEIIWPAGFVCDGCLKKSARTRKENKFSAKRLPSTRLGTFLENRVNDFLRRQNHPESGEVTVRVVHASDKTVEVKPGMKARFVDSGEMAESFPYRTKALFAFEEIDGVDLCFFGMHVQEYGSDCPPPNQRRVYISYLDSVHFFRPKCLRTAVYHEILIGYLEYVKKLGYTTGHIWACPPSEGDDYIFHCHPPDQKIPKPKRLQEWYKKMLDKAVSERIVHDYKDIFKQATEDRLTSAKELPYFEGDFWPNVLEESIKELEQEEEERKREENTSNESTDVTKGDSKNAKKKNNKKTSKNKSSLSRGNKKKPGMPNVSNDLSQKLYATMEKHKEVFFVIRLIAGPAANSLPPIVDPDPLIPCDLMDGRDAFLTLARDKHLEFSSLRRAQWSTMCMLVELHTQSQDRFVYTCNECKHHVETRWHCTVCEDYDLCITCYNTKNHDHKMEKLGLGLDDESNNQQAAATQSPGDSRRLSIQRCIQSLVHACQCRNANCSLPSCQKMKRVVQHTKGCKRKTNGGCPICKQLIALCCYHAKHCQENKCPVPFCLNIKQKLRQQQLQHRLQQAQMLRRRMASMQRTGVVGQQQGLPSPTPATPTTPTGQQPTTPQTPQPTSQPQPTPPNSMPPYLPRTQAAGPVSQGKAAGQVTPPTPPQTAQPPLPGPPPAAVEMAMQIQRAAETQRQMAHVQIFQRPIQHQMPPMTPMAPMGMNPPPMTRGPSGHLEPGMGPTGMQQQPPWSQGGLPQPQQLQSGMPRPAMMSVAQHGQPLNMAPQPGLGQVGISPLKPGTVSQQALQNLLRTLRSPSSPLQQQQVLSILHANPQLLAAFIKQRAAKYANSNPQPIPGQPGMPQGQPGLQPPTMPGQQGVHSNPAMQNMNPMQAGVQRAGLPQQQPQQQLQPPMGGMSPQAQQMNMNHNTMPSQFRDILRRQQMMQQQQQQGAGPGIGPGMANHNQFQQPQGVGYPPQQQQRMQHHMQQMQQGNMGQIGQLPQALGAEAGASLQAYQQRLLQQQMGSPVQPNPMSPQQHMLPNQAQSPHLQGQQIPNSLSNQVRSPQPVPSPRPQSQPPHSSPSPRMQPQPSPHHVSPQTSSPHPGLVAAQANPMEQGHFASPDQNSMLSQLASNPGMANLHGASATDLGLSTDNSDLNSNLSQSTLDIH

[18] = biological target: Proto-oncogene tyrosine-protein kinase Src (Homo sapiens) (UniProt P12931); test: Inhibition of […] phosphorylation in human MDA-MB-231 cells at 0.05 to 10 uM by Western blotting analysis; format: cell-based
OVCAR-3 = test: Reduction of total Stat3 level in human OVCAR3 cells at 1 to 20 uM by Western blotting analysis; format: functional, cell-based
[19] = biological target: Signal transducer and activator of transcription 3 (Homo sapiens) (UniProt P40763); conditions: MDA-MB-468, 1 to 20 uM
Description: Inhibition of Stat3 phosphorylation in human MDA-MB-468 cells assessed as inhibition of Bcl2 expression at 1 to 20 uM by Western blotting analysis in normoxia condition

[20] = biological target: Hypoxia-inducible factor 1-alpha (Homo sapiens) (UniProt Q16665); test: Inhibition of HIF-1 alpha in human MDA-MB-468 cells assessed as proteasomal degradation at 4 to 7 uM after 18 hrs by immunoblotting analysis in hypoxia condition; format: cell-based
[21] = biological target: Signal transducer and activator of transcription 3 (Homo sapiens) (UniProt P40763); conditions: PANC-1, 1 to 20 uM
Description: Inhibition of Stat3 phosphorylation in human PANC1 cells assessed as inhibition of Bcl2 expression at 1 to 20 uM by Western blotting analysis in normoxia condition

MDA-MB-468 [22] = test: Inhibition of HIF-1 in human MDA-MB-468 cells assessed as reduction of VEGF mRNA expression at 5 to 10 uM by RT-PCR analysis in hypoxia condition; format: cell-based
MDA-MB-468 [23] = test: Induction of apoptosis in human MDA-MB-468 cells assessed as reduction in cell viability at 8 uM after 12 to 48 hrs by MTT assay; format: functional, cell-based
[24] = biological target: Signal transducer and activator of transcription 3 (Homo sapiens) (UniProt P40763); test: Inhibition of Stat3 phosphorylation in human MDA-MB-231 cells assessed as inhibition of c-Myc expression at 1 to 20 uM by Western blotting analysis; format: cell-based
MDA-MB-231 [25] = test: Anticancer activity in human MDA-MB-231 cells assessed as reduction of total Stat3 level at 10 uM after 18 hrs by Western blotting analysis; format: functional, cell-based
Homo sapiens = organism: Homo sapiens; test: Inhibition of telomerase (unknown origin)
MDA-MB-468 [26] = test: Reduction of total Stat3 level in human MDA-MB-468 cells at 1 to 20 uM by Western blotting analysis; format: functional, cell-based
[27] = Antitumor activity against human PANC1 cells xenografted in Balb nu/nu mouse assessed as mean tumor weight at 2 mg/kg, ip administered every other day for 10 days measured after 19 days (reference value: 0.5 +/- 0.05 g); format: functional, PANC-1; conditions: route intraperitoneal
MDA-MB-231 [28] = test: Antitumor activity against human MDA-MB-231 cells xenografted in Balb nu/nu mouse assessed as reduction in tumor growth at 5 mg/kg, po administered every other day for 10 days; format: functional, organism-based; set-up: dose 5 mg/kg
[29] = biological target: Hypoxia-inducible factor 1-alpha (Homo sapiens) (UniProt Q16665); test: Inhibition of HIF-1alpha in human MDA-MB-231 cells at 10 uM after 18 hrs by Western blotting analysis in hypoxia condition; format: cell-based
[30] = biological target: Histone acetyltransferase p300 (Homo sapiens) (UniProt Q09472); test: Inhibition of P300 in human MDA-MB-468 cells at 1 to 20 uM by Western blotting analysis; format: cell-based

SMILES: CN(C)CCCN1C(=O)c2ccc3c4ccc5c6c(ccc(c7ccc(c2c37)C1=O)c64)C(=O)N(CCCN(C)C)C5=O
- inhibition (PANC-1 [1]): inactive
- inhibition (PANC-1 [2]): inactive
- inhibition [3]: Active
- Activity [4]: Non-toxic
- inhibition [5]: Active
- inhibition [6]: Active
- Activity (MDA-MB-468 [7]): Active
- inhibition [8]: Active
- inhibition (MDA-MB-468 [9]): Active
- inhibition [10]: inactive
- inhibition [11]: Active
- inhibition [12]: Active
- Activity [13]: 75 mm3
- inhibition [14]: inactive
- Activity (Mus musculus): Non-toxic
- inhibition [15]: Active
- inhibition [16]: inactive
- inhibition [17]: inactive
- inhibition [18]: inactive
- Activity (OVCAR-3): Active
- inhibition [19]: Active
- inhibition [20]: Active
- inhibition [21]: Active
- inhibition (MDA-MB-468 [22]): Active
- Activity (MDA-MB-468 [23]): Active
- inhibition [24]: Active
- Activity (MDA-MB-231 [25]): inactive
- inhibition (Homo sapiens): Active
- Activity (MDA-MB-468 [26]): Active
- Activity [27]: 0.06 g
- Activity (MDA-MB-231 [28]): Active
- inhibition [29]: Active
- inhibition [30]: inactive
